Results: ChEMBL document CHEMBL1154360, “Cytotoxic and PTP1B inhibitory activities from Erythrina abyssinica” (Bioorg Med Chem Lett, 2009)

What was measured:
[1] = molecular target: T1, Tyrosine-protein phosphatase non-receptor type 1 (Homo sapiens, UniProt P18031); assay: Inhibition of human recombinant PTP1B assessed as p-nitrophenol production
T1 sequence (P18031 whole entry): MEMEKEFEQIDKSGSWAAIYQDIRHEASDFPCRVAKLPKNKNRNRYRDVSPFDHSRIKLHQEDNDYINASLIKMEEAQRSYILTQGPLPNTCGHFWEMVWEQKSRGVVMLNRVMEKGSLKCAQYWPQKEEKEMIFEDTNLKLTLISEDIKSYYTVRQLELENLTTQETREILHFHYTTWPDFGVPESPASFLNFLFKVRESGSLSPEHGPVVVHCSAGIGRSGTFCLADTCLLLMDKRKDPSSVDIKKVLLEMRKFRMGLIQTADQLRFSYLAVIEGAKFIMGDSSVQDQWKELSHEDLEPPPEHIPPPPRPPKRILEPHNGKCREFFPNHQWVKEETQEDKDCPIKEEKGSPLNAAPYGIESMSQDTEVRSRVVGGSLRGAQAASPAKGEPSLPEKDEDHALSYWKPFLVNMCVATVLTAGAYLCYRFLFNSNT

MCF7 [2] = assay: Cytotoxicity against human MCF7 cells by WST-1 assay; assay type: functional, cell-based
MCF7 [3] = assay: Cytotoxicity against human tamoxifen-resistant MCF7 cells by WST-1 assay; assay type: functional, cell-based
MCF7 [4] = assay: Cytotoxicity against human adriamycin- resistant MCF7 cells by WST-1 assay; assay type: functional, cell-based
MDA-MB-231 = assay: Cytotoxicity against human MDA-MB-231 cells by WST-1 assay; assay type: functional, cell-based

Row | Compound | IC50 [1] [µM] | IC50 (MCF7 [2]) [µM] | IC50 (MCF7 [3]) [µM] | IC50 (MCF7 [4]) [µM] | IC50 (MDA-MB-231) [µM]
1 | COc1cc2c(cc1O)O[C@H]1c3cc(CC=C(C)C)c(OC)cc3OC[C@@H]21 [ERYTHRIBYSSIN C] | > 30 | > 30 | > 30 | > 30 | > 30
2 | CCCCCCCCCCCCCCCC(=O)C1=C(O)[C@@H](CO)OC1=O | – | > 30 | > 30 | > 30 | > 30
3 | O=Cc1c(O)ccc2c1O[C@H]1c3ccc(O)cc3OC[C@@H]21 [ERYTHRIBYSSIN B] | > 30 | > 30 | > 30 | > 30 | > 30
4 | CC(C)=CCc1c(O)ccc2c1OC[C@H]1c3ccc4c(c3O[C@@H]21)C=CC(C)(C)O4 [ERYBREADIN B] | 4.2 | 11.8 | 6.2 | 5.6 | 7.7
5 | CC(C)=CCc1c(O)ccc2c1OC[C@H]1c3ccc4c(c3O[C@@H]21)OC(C)(C)C=C4 [ERYBREADIN D] | 6.4 | – | 7.8 | 12.7 | –
6 | CC(C)=CCc1c(O)ccc2c1O[C@H]1c3ccc(O)cc3OC[C@@H]21 [PHASEOLLIDIN] | > 30 | > 30 | > 30 | > 30 | > 30
7 | CC(C)=CCc1cc2c(cc1O)OC[C@@]1(O)c3ccc4c(c3O[C@@H]21)C=CC(C)(C)O4 [ERYSUBIN E] | 8.8 | > 30 | > 30 | > 30 | > 30
8 | CC(C)=CCc1cc2c(cc1O)O[C@H]1c3ccc(O)cc3OC[C@@H]21 [SOPHORAPTEROCARPAN A] | > 30 | > 30 | > 30 | > 30 | > 30
9 | C[C@H]1[C@H](C)CC[C@]2(C(=O)O)CC[C@]3(C)C(=CC[C@@H]4[C@@]5(C)CC[C@H](O)C(C)(C)[C@@H]5CC[C@]43C)[C@H]12 [URSOLIC ACID] | – | > 30 | > 30 | > 30 | > 30
10 | CC(C)=CCc1cc2c(cc1O)O[C@H]1c3ccc(O)c(CC=C(C)C)c3OC[C@@H]21 [ERYBREADIN C] | 7.3 | 14.8 | 9.1 | 20.1 | 22.7
11 | CC(C)=CCc1c(O)ccc2c1OC[C@H]1c3ccc(O)cc3O[C@@H]21 | 19.5 | > 30 | > 30 | > 30 | > 30
12 | COc1cc2c(cc1O)O[C@H]1c3cc(CC=C(C)C)c(O)cc3OC[C@@H]21 [ERYVARIN K] | > 30 | > 30 | > 30 | > 30 | > 30
13 | CC(C)=CCc1cc2c(cc1O)OC[C@H]1c3ccc(O)c(CC=C(C)C)c3O[C@@H]21 [ERYBRAEDIN C] | > 30 | > 30 | > 30 | > 30 | > 30
14 | CC/C(=C(\c1ccccc1)c1ccc(OCCN(C)C)cc1)c1ccccc1 [TAMOXIFEN] | – | 11.4 | – | – | –
15 | COc1ccc2c(c1CC=C(C)C)O[C@H]1c3ccc(O)cc3OC[C@@]21OC [ERYTHRIBYSSIN A] | 19.3 | 19.4 | 12 | 16.1 | 28
16 | CC1(C)C=Cc2cc3c(cc2O1)OC[C@H]1c2ccc(O)cc2O[C@@H]31 [NEORAUTENOL] | 7.6 | > 30 | > 30 | > 30 | > 30
17 | COc1ccc2c(c1CC=C(C)C)O[C@H]1c3cc(CC=C(C)C)c(O)cc3OC[C@@]21O [ERYSTAGALLIN A] | 20.8 | > 30 | > 30 | > 30 | > 30
18 | CC(C)=CCc1cc2c(cc1O)OC[C@H]1c3ccc4c(c3O[C@@H]21)C=CC(C)(C)O4 [FOLITENOL] | 7.8 | – | 18.8 | 10.8 | 16.7
